{
  "source": "patent US8946162B2",
  "about": "“Treatment of tumors” (priority 2008, dated 2015)",
  "key": {"[1]": {"test_system": "Ang II", "settings": "reaction conditions identical; material expressed in insect cells; cited from earlier work"}, "[2]": {"test_system": "human tumour cell line", "assay": "Suppression of tumour cell growth (cell count in haemocytometer)", "assay_type": "cell-based", "settings": "up to day 17; for cell growth (cell count): culture medium RPMI 1640 10% FCS supplemented with the substance alone (100 nM peptide or 20 μg/ml sACE2), versus control medium", "method": "A human tumour cell line was sowed at a density of 2.5×10^4 cells/ml in 200 μl RPMI 1640 in 10% FCS in 96-well plates and incubated at 37° C. and 5% CO2. The influence of various active components of the RAS were evaluated using the following test systems. All the analyses were carried out as triple determinations (sACE2=soluble ACE2 without C-terminal membrane domain): • Condition A. Culture medium RPMI 1640 with 10% FCS as control • Condition B. Culture medium supplemented with 100 nM Ang II • Condition C. Culture medium supplemented with 100 nM Ang 1-7 • Condition D. Culture medium supplemented with 20 μg/ml sACE2 • Condition E. Culture medium supplemented with 20 μg/ml sACE2 and […]\nEvery day 100 μl of medium was removed and replaced by the same volume of fresh specific medium. The cell count was determined on days 2, 3, 6, 8, 10, 13, 15 and 17 by multiple counting in a haemocytometer. A separately prepared test plate was used for each determination."}, "[3]": {"test_system": "Ang II", "assay": "Determination of specific ACE2 activity (conversion of Ang II to Ang 1-7, RP-HPLC)", "assay_type": "biochemical", "method": "Furthermore, both Ang II and Ang 1-7 peaks were recognised and integrated in the chromatograms. The peptide concentrations were determined using calibration curves. Enzymatic conversion and specific enzyme activity were also determined."}, "[4]": {"assay": "Aggregation of the ACE2 preparation in physiological buffer", "assay_type": "physicochemical", "settings": "concentrated protein solution in physiological buffer", "from_the_text": "The dimer-ACE2 preparation produced according to Example 1 is present as a stable, highly pure and concentrated protein solution in physiological buffer and can be stored and administered […].\nThe ACE2 preparation also has full enzyme activity."}, "[5]": {"assay": "Terminal half-life measured in various species", "assay_type": "in vivo", "settings": "including rhesus monkeys", "from_the_text": "ACE2 is metabolised slowly due to the large, highly branched and complex sugar moiety."}, "[6]": {"settings": "250 ng/ml ACE2, 80 μM Ang II, pH 6.5, 18 minutes at 37° C."}},
  "data": [
    {"substance": "ACE2 (Vickers et al.): ACE2 of Vickers et al., expressed in insect cells, same amino acid sequence, glycosylated to a considerably lesser extent", "values": [
      {"measurement": "catalytic ACE2 activity published by Vickers et al.", "setting": "[1]", "result": 3.5, "unit": "s⁻¹"}
    ]},
    {"substance": "ACE2 preparation produced according to Example 1: Soluble section of human ACE2 expressed in CHO, fully N-glycosylated, obtained as a dimer with two Zn2+", "values": [
      {"measurement": "cell growth (cell count)", "setting": "[2]", "result": "marginally increased growth"},
      {"measurement": "cell growth (cell count) in the presence of Ang II", "setting": "[2]; culture medium supplemented with 20 μg/ml sACE2 and […]", "result": "reduced cell growth"},
      {"measurement": "catalytic activity kkat based on Ang II conversion", "setting": "[3]; [6]", "result": "8.0 ± 0.3", "unit": "s⁻¹"},
      {"measurement": "catalytic activity kkat in relation to Ang 1-7 conversion", "setting": "[3]; [6]", "result": "8.8 ± 0.2", "unit": "s⁻¹"},
      {"measurement": "higher activity than the figures of Vickers et al.", "setting": "[3]; present preparation versus Vickers material", "result": 240, "unit": "%"},
      {"measurement": "aggregation to multimers", "setting": "[4]", "result": "does not exhibit any aggregation to multimers"},
      {"measurement": "terminal half-life", "setting": "[5]", "result": "at least 10.5 hours"}
    ]},
    {"substance": "Ang 1-7: Effector peptide of the RAS, antagonist of Ang II, formed from Ang II by ACE2 (DRVYIHP; Angiotensin 1-7; UniProt P01019 25-31, looked up) [reference compound]", "values": [
      {"measurement": "cell growth (cell count)", "setting": "[2]", "result": "reduced cell growth"}
    ]},
    {"substance": "Asp-Arg-Val-Tyr-Ile-His-Pro-Phe (DRVYIHPF; printed: Asp-Arg-Val-Tyr-Ile-His-Pro-Phe) [Ang II, reference compound]", "values": [
      {"measurement": "cell growth (cell count)", "setting": "[2]", "result": "distinctly increased cell growth"}
    ]}
  ]
}
